Results published in article PMC9227323, “The Potential of Cell-Penetrating Peptides for mRNA Delivery to Cancer Cells” (Pharmaceutics, 2022).
Where “and” joins values, the source holds several entries; their conditions need not be identical. Identical values can stand only once. Ends that are not written are not given here.

Legend:
mCherry mRNA = assay: Gel shift assay, complexation capacity of CPP with mRNA; assay type: physicochemical; conditions: 350 ng mCherry mRNA, n = 3
Method: The mRNA was diluted in RNase-free water at 100 ng/μL and incubated with CPPs (1 μg/μL in RNase-free water) at room temperature (RT) for 1 h at 200 rpm. For in vitro studies, CPP/mRNA complexes were diluted with 1× PBS by adding 10× PBS after complexation. To visualize the complexation of mRNA and CPP, 350 ng of mCherry mRNA was mixed with increasing amounts of CPP and a gel shift assay was performed using a 1% agarose gel. Complexation capacity was measured based on mRNA band intensities by Image J. Complexation capacity (%) = 100 − ((Band intensity of mRNA)/(Band intensity of initial mRNA) × 100))

[1] = Size and zeta-potential of CPP/mRNA complexes by DLS; assay type: physicochemical; conditions: for Particle Size / PDI / Zeta Potential: CPP/mRNA complex at the N/P ratio of Table 2; for Particle Size / PDI: DLS; for Particle Size / Zeta Potential: Zetasizer Nano ZS; for Particle Size: 50 μg CPP in 1 mL distilled water; for PDI / Zeta Potential: distilled water; for N/P Ratio (lowest N/P ratio to form the nanocomplexes): CPP/mRNA complex, amine groups of peptide to phosphate groups of mRNA
Method: The size and zeta-potential of CPP/mRNA complexes were measured by dynamic light scattering (DLS) using Zetasizer Nano ZS (Malvern Instruments, Malvern, UK); 50 μg of CPPs mixed with an optimized amount of mRNA were diluted in 1 mL of distilled water and then transferred to a cuvette.

CT26.CL25 cells [2] = assay: Cellular uptake of fluorescein-labeled mRNA, flow cytometry; assay type: cell-based, mouse; conditions: CT26.CL25, 3 μg (6.8 nM) fluorescein-labeled mCherry mRNA with CPP or Lipofectamine 3000, serum-free media, 3 h, n = 3
Method: For the cellular uptake test, mCherry mRNA was labeled with fluorescein dye using the Label IT nucleic acid labeling kit (MIR 3200) (Mirus Bio, Madison, WI, USA). CT26.CL25 cells plated on a 35 mm glass bottom dish were incubated in 1.5 mL of serum-free media for 2 h. […] After treatment, CT26.CL25 cells were collected with PBS and FITC-positive cells were measured by a CytoFLEX flow cytometer (Beckman Coulter, Palo Alto, CA, USA) using FlowJo v10 software.

CT26.CL25 cells [3] = assay: mCherry protein expression, fluorescence microscopy; assay type: cell-based, mouse; conditions: CT26.CL25, CPP/mCherry mRNA 6.8 nM, 24 h after treatment, n = 3
Method: (§1) To measure expression efficiency, cells seeded on a 35 mm glass bottom dish were incubated in 1.5 mL of serum-free media for 2 h. After incubation, mCherry mRNA with Lipofectamine 3000 or CPPs were treated for 3 h, washed, and incubated in complete medium for an additional 21 h. The expression of mCherry protein was visualized with a fluorescence microscope (EVOS M7000, ThermoFisher). The expression efficiency was calculated by counting the number of cells expressing fluorescence in the total number of cells. For quantification of expression efficiency, flow cytometry analyses were examined after 24 h treatment with CPP/EGFP mRNA. CT26.CL25 cells were collected with PBS and EGFP-expressing cells were measured by a CytoFLEX flow cytometer (Beckman Coulter) using FlowJo v10 software.

CT26.CL25 cells [4] = assay: EGFP expression, flow cytometry; assay type: cell-based, mouse; conditions: CT26.CL25, EGFP mRNA 6.8 nM, 24 h, right plot of Figure 6B (amphipathic CPPs)
Method: as §1

Substance | amount of CPP at which complete complexes formed (mCherry mRNA) | Particle Size [1] | PDI [1] | Zeta Potential [1] | N/P Ratio (lowest N/P ratio to form the nanocomplexes) [1] | FITC-positive cells (cellular uptake) (CT26.CL25 cells [2]) | mCherry-positive cells (CT26.CL25 cells [3]) | EGFP-expressing cells (CT26.CL25 cells [4])
WEARLARALARALARHLARALARALRACEA [amphipathic cell-penetrating peptide, synthesized by Peptron] | 1.0 nmol | 174.6 (±3.7) nm | 0.23 | +20.2 (±1.7) mV | 9.7 | 99.9% and > 85% | 28.9% | 29.5%
Stearyl-RRRRRRRR [STR-Arg8, Stearyl-poly-Arginine8, amphipathic CPP, stearyl moiety introduced into Arg8] |  | 156.8 (±4.7) nm | 0.28 | +28.6 (±0.3) mV | 7.8 | 87.3% and > 85% | 4.9% | 14.6%
Penetratin |  |  |  |  |  | 28.7% | incapable of protein expression | 
VSRRRRRRGGRRRR [LMWP, low molecular weight protamine, cationic cell-penetrating peptide, synthesized by Peptron] |  | 129.5 (±0.3) nm | 0.22 | +22.5 (±0.0) mV | 1.9 | 24.1% |  | 
